Reference: article PMC9220178, “Preclinical Characterization of Antioxidant Quinolyl Nitrone QN23 as a New Candidate for the Treatment of Ischemic Stroke” (Antioxidants, 2022)
Like-named read-outs stand apart in the source and are kept apart here.

How the values were obtained:
[1] = tested on: primary neuronal cultures subjected to OGD; design: method as in PMID 30715875; conditions: cited from earlier work
[2] = Solubility studies for the injection vehicle; type: physicochemical; conditions: ethanol/saline, 1:9 v/v; highest concentrations (for doses up to 2.5 mg/kg)
Method: In the following section, we describe the effect of different doses of QN23 (1.0, 1.5, 2.0, and 2.5 mg/kg) administered intravenously (see Materials and Methods, Section 2.2). In order to explore this wider range of concentrations, solubility studies were carried out before the in vivo experiments in order to assess a proper pharmacological formulation. For the highest concentrations, QN23 was not soluble in our usual ethanolic vehicle (ethanol/saline, 1:9 v/v). After exploration of different formulations able to provide a safe injection method, we got the desired concentrations using a vehicle of ethanol, polyethylene glycol 400, and saline (1:300:200, v/v). Using this vehicle, animals were treated intravenously with QN23 concentrations of 1.0, 1.5, 2.0, and 2.5 mg/kg as a single injection at the onset of the reperfusion period after transient cerebral ischemia. After five days of recovery (R5d), neuronal death, apoptosis, and neurodeficit score were determined (Figure 1 and Figure 2).

[3] = design: method as in PMID 30715875; conditions: in vitro; cited from earlier work
[4] = Toxicokinetics study, plasma concentration by LC-MS/MS after single i.v. bolus; type: in vivo, rat; conditions: for Clast / Cmax / AUC(0-t) / C0 / clearance / Vd / k el / half-life: female Sprague Dawley rats, plasma, mean ± SE, n = 6; for Cmax / AUC(0-t) / C0 / clearance / Vd / k el / half-life: rat, iv; for AUC(0-t): read-out: AUC0–8h; for C0: read-out: C0 (initial concentration); for clearance: read-out: Cl (clearance) (converted); for Vd: read-out: Vd (volume of distribution); for k el: read-out: kel (elimination constant) (converted); for half-life: read-out: t1/2 (half-life) (converted)
Method: For the toxicokinetics study of QN23, female Sprague Dawley rats (9–10 weeks, Envigo, Barcelona, Spain) were divided into three groups (n = 6 per group) and treated intravenously with different concentrations of QN23 (2.0, 6.0, and 18 mg/kg), in vehicle solution (ethanol/polyethylene glycol 400/saline, 1:200:60 v/v), as a single bolus of 1 mL injection at 3 mL/min. Samples of plasma were taken at 0.25, 0.5, 1, 2, 4, and 8 h after the first administration (on day 1) and QN23 concentration was determined by liquid chromatography–mass spectrometry in tandem (LC-MS/MS) analysis for pharmacokinetic study. For the determination of the toxicokinetic parameters, a noncompartmental analysis was performed using the Phoenix 64 WinNonlin software (version 8.0, Certara, Sant Louis, MO, USA). This study was carried out by Swiss BioQuant AG (Reinach, Switzerland). For the toxicity study of QN23, rats were divided into four groups (n = 5 per group) and treated intravenously with vehicle (control group) or different concentrations of QN23 (2.0, 6.0, and 18 mg/kg) as a single bolus injection in a 4-day repeated dose as described above. Pathology analyses, comprising hematology, clinical biochemistry, and coagulation, were performed, and heart, kidney, liver, and spleen necropsies were collected for macroscopic analysis. This study was carried out by Vivotecnia Research S.L (Madrid, Spain).

[5] = applied at onset of recovery period after OGD

**Q.** With `COc1ccc2nc(Cl)c(/C=[N+](\[O-])C(C)(C)C)cc2c1` [QN23, (Z)-N-tert-Butyl-1-(2-chloro-6-methoxyquinolin-3-yl)methanimine Oxide] as the compound, how does the “Most effective concentration for neuroprotection” value [1, 5] read?
**A.** 100 µM

**Q.** What about the “Optimal range of concentration for neuroprotection” value [1, 5] of the same compound?
**A.** 0.3 to 250 µM

**Q.** What about the “ROS and lipid peroxidation levels” value ([1]; primary neuronal cultures subjected to OGD) of the same compound?
**A.** decreased

**Q.** What about the “Solubility in ethanolic vehicle” value [2] of the same compound?
**A.** not soluble

**Q.** And the “Hydroxyl radical (·OH) scavenging” value [3]?
**A.** potent scavenger

**Q.** What about the Clast ([4]; 2.0 mg/kg single i.v. bolus) of the same compound?
**A.** 30 ± 8 ng/mL

**Q.** What about the “Latest time after injection with quantifiable plasma concentration” value ([4]; 6 mg/kg single i.v. bolus) of the same compound?
**A.** ≤ 4 h

**Q.** And the Clast ([4]; 6.0 mg/kg single i.v. bolus)?
**A.** 34 ± 5 ng/mL

**Q.** And the “Last concentration found as share of the initial (and maximal) detected concentration” value ([4]; 18 mg/kg single i.v. bolus)?
**A.** approximately 1%

**Q.** What about the Clast ([4]; 18 mg/kg single i.v. bolus) of the same compound?
**A.** 49 ± 5 ng/mL

**Q.** What about the “AUC0–8h versus dose” value ([4]; 2.0, 6.0 and 18 mg/kg single i.v. bolus) of the same compound?
**A.** increased proportional to the dose administered

**Q.** And the Cmax ([4]; 2.0 mg/kg single i.v. bolus)?
**A.** 161 ± 86 ng/mL

**Q.** And the AUC(0-t) ([4]; 2.0 mg/kg single i.v. bolus)?
**A.** 160 ± 61 ng·h/mL

**Q.** And the C0 ([4]; 2.0 mg/kg single i.v. bolus)?
**A.** 540 ± 186 ng/mL

**Q.** And the Cmax ([4]; 6.0 mg/kg single i.v. bolus)?
**A.** 1090 ± 371 ng/mL

**Q.** And the AUC(0-t) ([4]; 6.0 mg/kg single i.v. bolus)?
**A.** 1010 ± 355 ng·h/mL

**Q.** And the C0 ([4]; 6.0 mg/kg single i.v. bolus)?
**A.** 2170 ± 661 ng/mL

**Q.** What about the Cmax ([4]; 18 mg/kg single i.v. bolus) of the same compound?
**A.** 2570 ± 1200 ng/mL

**Q.** What about the AUC(0-t) ([4]; 18 mg/kg single i.v. bolus) of the same compound?
**A.** 2960 ± 1290 ng·h/mL

**Q.** What about the C0 ([4]; 18 mg/kg single i.v. bolus) of the same compound?
**A.** 4350 ± 1860 ng/mL

**Q.** What about the clearance ([4]; 2.0 mg/kg single i.v. bolus) of the same compound?
**A.** 73.3 mL/min

**Q.** And the Vd ([4]; 2.0 mg/kg single i.v. bolus)?
**A.** 1.26 ± 0.434 L

**Q.** What about the k el ([4]; 2.0 mg/kg single i.v. bolus) of the same compound?
**A.** 0.00118 s⁻¹

**Q.** And the half-life ([4]; 2.0 mg/kg single i.v. bolus)?
**A.** 9.6 ± 0.6 min

**Q.** And the clearance ([4]; 6.0 mg/kg single i.v. bolus)?
**A.** 56.7 mL/min

**Q.** What about the Vd ([4]; 6.0 mg/kg single i.v. bolus) of the same compound?
**A.** 1.66 ± 0.584 L

**Q.** What about the k el ([4]; 6.0 mg/kg single i.v. bolus) of the same compound?
**A.** 0.000931 s⁻¹

**Q.** And the half-life ([4]; 6.0 mg/kg single i.v. bolus)?
**A.** 14.4 ± 1.8 min

**Q.** And the clearance ([4]; 18 mg/kg single i.v. bolus)?
**A.** 78.1 mL/min

**Q.** What about the Vd ([4]; 18 mg/kg single i.v. bolus) of the same compound?
**A.** 20.4 ± 12.3 L

**Q.** And the k el ([4]; 18 mg/kg single i.v. bolus)?
**A.** 0.000347 s⁻¹

**Q.** What about the half-life ([4]; 18 mg/kg single i.v. bolus) of the same compound?
**A.** 67.8 ± 23.4 min
